Reference: publication PMC11645267, “Novel pharmacologic inhibition of lysine-specific demethylase 1 as a potential therapeutic for glioblastoma” (Cancer Gene Therapy, 2024)
Like-named read-outs stand apart in the source and are kept apart here.

Tests used:
[1] = Pharmacokinetic analysis, plasma and brain levels; type: in vivo; details: male, Crl:CD1 (ICR), mouse, ip, ICR mice, n = 3
Experimental: Male Crl:CD1 (ICR) mice from […], Japan (8 weeks old, n = 3) received a single intraperitoneal injection of S2172 at 30 mg/kg in 5 mL/kg of 15% DMSO/17.5% Cremophor EL/8.75% Ethanol/8.75% HCO-40/50% PBS. Serial blood sampling was conducted from the jugular vein at 0.25, 0.5, 1, 2, 4, and 6 hr time points. At 0.5 h after injection, mice were euthanized, underwent hemoperfusion, and their brain tissue was harvested, homogenized and diluted 4-fold with water. Blood and brain homogenate samples were treated with acetonitrile and centrifuged. The supernatant solution was used for drug level measurement by LC/MS/MS. Pharmacokinetic parameters were calculated using Moment method analysis.

GSC1228 = assay: Cell proliferation assay (CellTiter-Glo 3D); type: cell-based; details: GSC1228, 96 h; read-out: Growth inhibitory IC50 (GI50)
Experimental: (§1) Supplementary materials and methods […]
(§2) Cell lines and culture conditions […]
(§3) 2013 #1009}{Katsushima, 2016 #1156}. GSC cells were cultured in Neurobasal Medium (Life Technologies, Carlsbad, CA, USA) containing N2 and B27 supplements (Life Technologies) along with human recombinant basic fibroblast growth factor and epidermal growth factor (20 ng/ml each; R&D Systems, Minneapolis, MN, USA). Cells were cultured at 37°C in a humidified incubator with 5% CO2.
(§4) For the cell proliferation assay, cells at a density of 1 × 10^5 cells per well were seeded before treatment with LSD1 inhibitors. Cell proliferation was measured after 4 days using a Cell Counting Kit 8 (Dojindo, Kumamoto, Japan) according to the manufacturer ’s […]
(§5) instructions. For GSC cells, the CellTiter-Glo 3D Viability Assay (Promega, Madison, WI, USA) was used to measure the living cells. […]

GSC222 = assay: Cell proliferation assay (CellTiter-Glo 3D); type: cell-based; details: GSC222, 96 h; read-out: Growth inhibitory IC50 (GI50)
Experimental: as §1, §2, §3, §4, §5

GSC316 = assay: Cell proliferation assay (CellTiter-Glo 3D); type: cell-based; details: GSC316, 96 h; read-out: Growth inhibitory IC50 (GI50)
Experimental: as §1, §2, §3, §4, §5

GSC cells [2] = assay: RNA-seq analysis of enhancer/super-enhancer related genes; type: cell-based, human; details: 5 μM, 96 h, relative to DMSO
Experimental: GSC cells treated with either DMSO (n = 4) or S2172 (5 μM, n = 4) for 96 h and total RNA was isolated with RNeasy mini kit (Qiagen). The RNA purity was determined using Agilent Tape Station (Agilent Technologies). Illumina TruSeq RNA sample preparation was conducted and the samples were run on an Illumina Hiseq XTen (Illumina). RNA-seq was aligned using HISAT2 under default setting to Homo Sapience hg38 [35]. TPM were generated using StringTie and differential expression analysis were performed using DESeq2 [37].
(§6) RNA-seq analysis was conducted to examine gene expression changes associated with super-enhancers/enhancers. Among the genes with de novo H3K4me2 modification, the average log2 fold changes (S2172 treatment relative to DMSO treatment) were −0.12 ± 0.03 for super-enhancer-related genes and −0.01 ± 0.01 for typical enhancer-related genes (P = 0.0004) (Supplementary Fig. S6B). In contrast, among the genes with increased H3K4me2 modification, the average log2 fold changes were −0.04 ± 0.01 for super-enhancer-related genes and −0.07 ± 001 for typical enhancer-related genes (P = 0.028) (Supplementary Fig. S6C).

GSC cells [3] = assay: mRNA expression of super-enhancer-associated genes; type: cell-based; details: 96 h
Experimental: as §6, with “S6C). […]” for “S6C).”
instructions. For GSC cells, the CellTiter-Glo 3D Viability Assay (Promega, Madison, WI, USA) was used to measure the living cells. All proliferation experiments were repeated […]
Total RNA from the cell lines was extracted using TRIzol (Thermo Fisher Scientific), followed by reverse-transcription using Prime Script RT Master Mix (Takara, Kusatsu, Japan). TaqMan qPCR (Roche Diagnostics, Basel, Switzerland) and SYBR Green qPCR (TOYOBO, Osaka, Japan) were performed at least in triplicate for the target genes.
Expression levels of each gene were normalized to GAPDH. GAPDH for TaqMan PCR assays was Hs.PT.39a.22214836 (Integrated DNA Technologies, Coralville, IA, USA).
Oligonucleotide primers used for SYBR Green assays are shown in Supplementary […]

LSD1 = LSD1 (Homo sapiens, UniProt O60341); assay: Enzyme inhibition assay (in vitro peroxidase assay) against LSD1
Experimental: Enzyme inhibition assays against LSD1, LSD2, MAO-A, and MAO-B were performed as previously described [25]. Technical replicates, n = 3.

[4] = plasma, single intraperitoneal injection 30 mg/kg

concentration at 0.5 hr ([1]; brain, single intraperitoneal injection 30 mg/kg, read-out: Brain concentration at 0.5 hr): 1520 ± 140 nM
Kp at 0.5 h ([1]; brain/plasma, 0.5 hr after single intraperitoneal injection 30 mg/kg, read-out: Brain/plasma ratio): 2.06 ± 0.39
Cmax [1, 4]: 1200 ± 120 nM
Tmax [1, 4]: 15 min
half-life [1, 4]: 299 ± 98.4 min
AUC(0-t) ([1]; plasma, single intraperitoneal injection 30 mg/kg, read-out: AUC0–6 h): 1.11 ± 0.08 µM·h
concentration at 0.5 hr ([1]; plasma, single intraperitoneal injection 30 mg/kg, read-out: Plasma concentration at 0.5 hr): 750 ± 90 nM
Ki (LSD1): 270 ± 60 nM
kinact (LSD1; read-out: kinact LSD1): 0.0026 ± 0.0002 s⁻¹
kinact/KI (LSD1; read-out: kinact/Ki LSD1): 9800 ± 570 M⁻¹ s⁻¹
SMILES: NC1CCC(NC2CC2c2cc(F)cc(F)c2OCc2ccccc2)CC1 (stereo not drawn) [S2172]
IC50 (GSC1228): 12.5 µM
IC50 (GSC222): 17 µM
IC50 (GSC316): 12 µM
average log2 fold change of expression, super-enhancer-related genes with de novo H3K4me2 (GSC cells [2]): −0.12 ± 0.03
average log2 fold change of expression, super-enhancer-related genes with increased H3K4me2 (GSC cells [2]): −0.04 ± 0.01
average log2 fold change of expression, typical enhancer-related genes with de novo H3K4me2 (GSC cells [2]): −0.01 ± 0.01
average log2 fold change of expression, typical enhancer-related genes with increased H3K4me2 (GSC cells [2]): −0.07 ± 001
expression of super-enhancer-associated genes EGR1 and CDK6 (GSC cells [3]): downregulated
